Here are results for 26 molecules from PMC5048153 (Scientific Reports, 2016).

The subject of experiment [1] is corticosterone-injured PC12 cells. Put plainly: Protective effects on corticosterone-injured PC12 cells (MTT). On the set-up: key to PR (protection rate), Table S1: compounds did not shown protection effects on corticosterone-injured PC12 cells. Conditions: 24 h after treatment; for PR (protection rate), Table S1: 1.25µM; for PR (protection rate): 200 μM corticosterone. It is filed as cell-based, rat. The method, then: PC12 cells were purchased from American Type Culture Collection and were maintained in DMEM medium supplemented with penicillin (100 unit/ml), streptomycin (100 μg/ml), 5% fetal bovine serum (FBS), and 10% horse serum at 37 °C in humidified atmosphere with 5% CO2. The detailed procedures were performed referring to the reported literatures. Briefly, PC12 cells of logarithmic growth phase were collected, re-suspended and then seeded at a density of 1 × 10^5 cells per well in 96-well plates and cultured in the DMEM medium with 5% horse serum, 10% FBSfor 24 h.
After incubation with compounds, 20 μl of 5 mg/ml MTT solution was added to each well and cultured at 37 °C for 2 h–4 h. Then, the culture medium was removed, and 150 μl dimethyl sulfoxide(DMSO) was added to each well for 15 min at room temperature. The absorbance of each well was measured at 570 nm using a microplate reader. The protective rates (PR) were calculated according to equation (1).

The next experiment deals with HEK293 cells. Nature of the experiment: Cytotoxicity on HEK293 cells (MTT). The format is cell-based, human. Conditions: after treatment; for IR (inhibitory rate) HEK293: 100μM; for inhibition at 100 µM: Homo sapiens, HEK293, 100μM, read-out: IR (inhibitory rate) HEK293. The method, then:
(§1) Human normal hepatic L02 cells, human embryonic kidney cell line 293 cells (HEK293) and Rattus myoblast cell line H9C2 cells were respectively seeded in 96-well plates at a density of 4 × 10^3 cells per well and cultured in the 1640 or DMEM medium, with the supplement of 10% fetal bovine serum, penicillin (100 unit/ml), streptomycin (100 μg/ml) in a humidified incubator with 5% CO2 for 24 h. […] The cytotoxicities of the compounds were evaluated by MTT method.

In a further experiment the test system is L02 cells. Nature of the experiment: Cytotoxicity on L02 cells (MTT). The format is cell-based, human. Conditions: after treatment; for IR (inhibitory rate) L02: 100μM; for inhibition at 100 µM: Homo sapiens, L02, 100μM, read-out: IR (inhibitory rate) L02. The method, then: as §1

Structures can show the parent of a compound that is named as a salt.

As for “1-(3,5-Dimethylpyridin-4-yl)-3-(2-(7-methoxy-3,4-dihydroisoquinolin-1-yl)ethyl)urea oxalate [6b-11]”, the “PR (protection rate), Table S1” value in experiment [1] is “-”. The “IR (inhibitory rate) HEK293” value in the experiment with HEK293 cells worked out at 28.1%. Further, in the experiment on L02 cells, the “IR (inhibitory rate) L02” value is 27.3%.

In the case of “2,6-Difluoro-N-(2-(7-methoxy-3,4-dihydroisoquinolin-1-yl)ethyl)benzamide oxalate [6a-34]”, in experiment [1], the “PR (protection rate), Table S1” value was “-”. In addition, the “IR (inhibitory rate) HEK293” value in the experiment with HEK293 cells came out at 47.1%. In addition, the “IR (inhibitory rate) L02” value in the experiment on L02 cells is 44.0%.

“2-(3-(2-(7-Methoxy-3,4-dihydroisoquinolin-1-yl)ethyl)ureido)thiazole-5-carboxylate oxalate [6b-8]”: the “PR (protection rate), Table S1” value in experiment [1] was “-”. Moreover, in the experiment on HEK293 cells, the “IR (inhibitory rate) HEK293” value is on record as 49.2%. For the same molecule, in the experiment with L02 cells, the “IR (inhibitory rate) L02” value came to 50.0%.

Turning to “2-((2-(7-Methoxy-3,4-dihydroisoquinolin-1-yl)ethyl)carbamoyl)phenylacetate oxalate [6a-20]”, the “PR (protection rate), Table S1” value in experiment [1] is on record as “-”. Further, in the experiment with HEK293 cells, the “IR (inhibitory rate) HEK293” value was found to be 57.1%. Moreover, the “IR (inhibitory rate) L02” value in the experiment with L02 cells came out at 54.9%.

On to “4-Fluoro-N-(2-(7-methoxy-3,4-dihydroisoquinolin-1-yl)ethyl)benzamide oxalate [6a-33]”, for which the “PR (protection rate), Table S1” value in experiment [1] was “-”. Also, the “IR (inhibitory rate) HEK293” value in the experiment on HEK293 cells was 43.0%. Further, in the experiment on L02 cells, the “IR (inhibitory rate) L02” value stood at 45.2%.

Regarding `CCC(=O)NCCC1=NCCc2ccc(OC)cc21.O=C(O)C(=O)O` [6a-2, N-(2-(7-Methoxy-3,4-dihydroisoquinolin-1-yl)ethyl) propionamide oxalate], the “PR (protection rate)” value in experiment [1] (5 μM) is recorded as 3.1%; in experiment [1] ([…]) it was 18.1%. Also, the inhibition at 100 µM was 23.4% in the experiment on HEK293 cells and 12.4% in the experiment on L02 cells.

For `COc1ccc2c(c1)C(CCNC(=O)C(F)(F)F)=NCC2` [6a-3, 2,2,2-Trifluoro-N-(2-(7-methoxy-3,4-dihydroisoquinolin-1-yl)ethyl) acetamideoxalate], the “PR (protection rate), Table S1” value in experiment [1] is listed as “-^b”. Besides, the inhibition at 100 µM in the experiment on HEK293 cells was determined as 60.1%; in the experiment on L02 cells, 59.6%.

Turning to `COc1ccc2c(c1)C(CCNC(=O)C1CC1)=NCC2` [6a-4, N-(2-(7-Methoxy-3,4-dihydroisoquinolin-1-yl)ethyl) cyclopropanecarboxamideoxalate], the “PR (protection rate), Table S1” value in experiment [1] is recorded as “-”. For the same molecule, the inhibition at 100 µM is 46.2% in the experiment on HEK293 cells and below 0% with L02 cells.

For the molecule `COc1ccc2c(c1)C(CCNC(=O)c1ccc(Cl)cc1)=NCC2` [6a-5, 4-Chloro-N-(2-(7-methoxy-3,4-dihydroisoquinolin-1-yl)ethyl) benzamideoxalate], the “PR (protection rate), Table S1” value in experiment [1] was determined as 4.1%. In addition, the inhibition at 100 µM in the experiment on HEK293 cells stood at 60%; in the experiment with L02 cells, 67%.

`COc1ccc(C(=O)NCCC2=NCCc3ccc(OC)cc32)cc1` [6a-6, 4-Methoxy-N-(2-(7-methoxy-3,4-dihydroisoquinolin-1-yl)ethyl) benzamideoxalate]: the “PR (protection rate), Table S1” value in experiment [1] was “-”. Besides, the inhibition at 100 µM was 34.1% in the experiment on HEK293 cells and 24.9% with L02 cells.

Turning to `COc1ccc2c(c1)C(CCNC(=O)c1ccccc1Cl)=NCC2` [6a-7, 2-Chloro-N-(2-(7-methoxy-3,4-dihydroisoquinolin-1-yl)ethyl) benzamide oxalate], the “PR (protection rate), Table S1” value in experiment [1] is on record as “-”. In addition, the inhibition at 100 µM in the experiment on HEK293 cells was 27.4%; with L02 cells, 23.5%.

`COc1ccc2c(c1)C(CCNC(=O)c1ccc(C(F)(F)F)cc1)=NCC2` [6a-8, N-(2-(7-Methoxy-3,4-dihydroisoquinolin-1-yl)ethyl) -4-(trifluoromethyl) benzamideoxalate]: the “PR (protection rate), Table S1” value in experiment [1] is reported as “-”. Moreover, the inhibition at 100 µM in the experiment with HEK293 cells came out at 38.4%; with L02 cells, 60.6%.

With `COc1ccc2c(c1)C(CCNC(=O)c1ccco1)=NCC2` [6a-9, N-(2-(7-Methoxy-3,4-dihydroisoquinolin-1-yl)ethyl) furan-2-carboxamideoxalate], the “PR (protection rate)” value in experiment [1] (5 μM) came out at 7.9%; in experiment [1] ([…]), 14.9%. For the same molecule, the inhibition at 100 µM in the experiment on HEK293 cells came to 60.1%; in the experiment on L02 cells it was 52.6%.

Take `COc1ccc2c(c1)C(CCNC(=O)c1ccccc1)=NCC2.O=C(O)C(=O)O` [6a-10, N-(2-(7-Methoxy-3,4-dihydroisoquinolin-1-yl)ethyl)benzamide oxalate]: the “PR (protection rate), Table S1” value in experiment [1] is “-”. Also, the inhibition at 100 µM is 27.6% with HEK293 cells and 22.5% in the experiment with L02 cells.

With `COc1ccc2c(c1)C(CCNC(=O)c1ccc(F)cc1)=NCC2` [6a-12, 4-Fluoro-N-(2-(7-methoxy-3,4-dihydroisoquinolin-1-yl)ethyl) benzamide oxalate], the “PR (protection rate), Table S1” value in experiment [1] stood at 0.7%. The results for the inhibition at 100 µM with HEK293 cells and with L02 cells were 43.8% and 19.1%, respectively.

Regarding `COc1ccc2c(c1)C(CCNC(=O)c1ccc(C(C)C)cc1)=NCC2` [6a-13, 4-Isopropyl-N-(2-(7-methoxy-3,4-dihydroisoquinolin-1-yl)ethyl) benzamide oxalate], the “PR (protection rate), Table S1” value in experiment [1] was “-”. The inhibition at 100 µM with HEK293 cells came to 57.6%; with L02 cells, 43%.

For the molecule `COc1ccc(C(=O)NCCC2=NCCc3ccc(OC)cc32)c(OC)c1` [6a-15, 2,4-Dimethoxy-N-(2-(7-methoxy-3,4-dihydroisoquinolin-1-yl)ethyl) benzamide oxalate], in experiment [1], the “PR (protection rate), Table S1” value is listed as 3.7%. For the same molecule, the inhibition at 100 µM in the experiment with HEK293 cells is 56.1%; with L02 cells, 49.5%.

In the case of `COc1ccc2c(c1)C(CCNC(=O)c1ccc(C(C)=O)cc1)=NCC2` [6a-16, 4-Acetyl-N-(2-(7-methoxy-3,4-dihydroisoquinolin-1-yl)ethyl) benzamideoxalate], in experiment [1], the “PR (protection rate), Table S1” value worked out at 6.1%. Moreover, the inhibition at 100 µM in the experiment on HEK293 cells and in the experiment with L02 cells was below 20% in each case.

On to `COc1ccc2c(c1)C(CCNC(=O)Cc1cc3ccccc3[nH]1)=NCC2.O=C(O)C(=O)O` [6a-17, 2-(1H-Indol-2-yl)-N-(2-(7-methoxy-3,4-dihydroisoquinolin-1-yl)ethyl)acetamide oxalate], for which the “PR (protection rate), Table S1” value in experiment [1] is listed as “-”. Also, the inhibition at 100 µM with HEK293 cells was 55.8%; in the experiment with L02 cells it was 42.2%.

Take `COc1ccc2c(c1)C(CCNC(=O)c1ccc(C(C)(C)C)cc1)=NCC2.O=C(O)C(=O)O` [6a-18, 4-(tert-Butyl)-N-(2-(7-methoxy-3,4-dihydroisoquinolin-1-yl)ethyl)benzamide oxalate]: in experiment [1], the “PR (protection rate), Table S1” value is listed as “-”. Further, the figures for the inhibition at 100 µM with HEK293 cells and in the experiment with L02 cells were 53.3% and 63.2%, respectively.

Turning to `COc1ccc2c(c1)C(CCNC(=O)c1ccc(C#N)cc1)=NCC2.O=C(O)C(=O)O` [6a-19, 4-Cyano-N-(2-(7-methoxy-3,4-dihydroisoquinolin-1-yl)ethyl)benzamide oxalate], the “PR (protection rate), Table S1” value in experiment [1] is given as “-”. The inhibition at 100 µM was 55.9% in the experiment on HEK293 cells and 45% in the experiment with L02 cells.

As for `COc1ccc2c(c1)C(CCNC(=O)c1cccnc1Cl)=NCC2.O=C(O)C(=O)O` [6a-21, 2-Chloro-N-(2-(7-methoxy-3,4-dihydroisoquinolin-1-yl)ethyl)nicotinamide oxalate], the “PR (protection rate), Table S1” value in experiment [1] was determined as 15.2%. Also, the “PR (protection rate)” value in experiment [1] (1.25 μM) was “above 10%”. Besides, the inhibition at 100 µM was 49.8% in the experiment with HEK293 cells and 58.8% in the experiment with L02 cells.

Take `COc1ccc2c(c1)C(CCNC(=O)c1cccc(C)c1)=NCC2.O=C(O)C(=O)O` [6a-22, N-(2-(7-Methoxy-3,4-dihydroisoquinolin-1-yl)ethyl)-3-methylbenzamide oxalate]: the “PR (protection rate), Table S1” value in experiment [1] was “-”. The figures for the inhibition at 100 µM in the experiment on HEK293 cells and with L02 cells were 22.2% and 31.8%, respectively.

`COc1ccc2c(c1)C(CCNC(=O)Nc1ccc(Cl)c(C(F)(F)F)c1)=NCC2` [6b-9, 1-(4-Chloro-3-(trifluoromethyl)phenyl)-3-(2-(7-methoxy-3,4-dihydroisoquinolin-1-yl)ethyl)urea oxalate]: the inhibition at 100 µM in the experiment with HEK293 cells was determined as 31.6%; in the experiment with L02 cells, 25.7%.

In the case of `COc1ccc2c(c1)C(CCNC(=O)NC(C)C)=NCC2` [6b-10, 1-Isopropyl-3-(2-(7-methoxy-3,4-dihydroisoquinolin-1-yl)ethyl)urea oxalate], the inhibition at 100 µM turned out to be 34.7% in the experiment on HEK293 cells and 31.9% with L02 cells.

Take `COc1ccc2c(c1)C(CCNC(=O)Nc1ccc(Cl)cc1[N+](=O)[O-])=NCC2` [6b-16, 1-(4-Chloro-2-nitrophenyl)-3-(2-(7-methoxy-3,4-dihydroisoquinolin-1-yl)ethyl)urea oxalate]: the inhibition at 100 µM came out at 52% in the experiment with HEK293 cells and 53.2% in the experiment with L02 cells.
